Patent US20240376099A1, “COMPOUNDS AND COMPOSITIONS AS INHIBITORS OF ENDOSOMAL TOLL-LIKE RECEPTORS” (Novartis AG, priority 2016, published 2024)

biological target: T1, TLR7 (Homo sapiens, UniProt Q9NYK1); assay: huPBMC TLR7 Antagonist IFNα Assay; type: cell-based; conditions: human PBMCs stimulated with ssRNA40 10 μg/mL (DOTAP), 14-16 hrs; IFNα2b AlphaLISA read-out
T1 construct: Fresh blood was collected from normal human donors; endogenous in cells; host or cells: human PBMCs from fresh donor blood
T1 sequence (Q9NYK1 27-1049): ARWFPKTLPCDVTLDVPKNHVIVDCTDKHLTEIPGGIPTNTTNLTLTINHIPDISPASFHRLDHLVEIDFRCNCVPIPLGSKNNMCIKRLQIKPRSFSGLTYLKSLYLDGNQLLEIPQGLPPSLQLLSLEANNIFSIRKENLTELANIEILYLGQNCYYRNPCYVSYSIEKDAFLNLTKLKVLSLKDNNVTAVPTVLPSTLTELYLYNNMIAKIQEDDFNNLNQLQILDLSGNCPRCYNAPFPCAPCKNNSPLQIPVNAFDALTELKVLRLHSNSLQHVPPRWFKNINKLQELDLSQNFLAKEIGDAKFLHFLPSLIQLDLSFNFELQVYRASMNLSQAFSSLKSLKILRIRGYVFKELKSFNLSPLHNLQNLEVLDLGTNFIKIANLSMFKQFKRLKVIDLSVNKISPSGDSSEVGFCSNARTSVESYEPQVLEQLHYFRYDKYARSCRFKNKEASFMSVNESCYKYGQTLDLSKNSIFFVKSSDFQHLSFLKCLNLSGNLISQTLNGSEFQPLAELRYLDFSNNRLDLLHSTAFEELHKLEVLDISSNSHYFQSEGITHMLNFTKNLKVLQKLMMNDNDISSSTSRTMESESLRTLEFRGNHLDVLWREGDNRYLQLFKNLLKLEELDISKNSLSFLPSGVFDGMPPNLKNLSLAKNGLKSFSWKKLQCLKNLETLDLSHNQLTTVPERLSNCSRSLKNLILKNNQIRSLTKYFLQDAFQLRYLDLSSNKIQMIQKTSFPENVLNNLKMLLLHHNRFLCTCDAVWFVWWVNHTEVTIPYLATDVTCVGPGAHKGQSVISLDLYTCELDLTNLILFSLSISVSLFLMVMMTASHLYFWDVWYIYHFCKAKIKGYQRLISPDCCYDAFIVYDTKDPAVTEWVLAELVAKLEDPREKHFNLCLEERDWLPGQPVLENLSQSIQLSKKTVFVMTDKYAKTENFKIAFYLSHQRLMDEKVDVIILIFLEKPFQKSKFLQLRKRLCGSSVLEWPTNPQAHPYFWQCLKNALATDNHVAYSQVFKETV
How it was run: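 Human PBMCs from fresh donor blood (150,000 cells/well) stimulated 14–16 h at 37 °C with DOTAP-complexed ssRNA40 (final 1 μg/ml for TLR8, 10 μg/mL for TLR7) or ODN2216 (final 0.3 μM, TLR9), 0.25% DMSO, ten-point 1/3 compound dilutions. Supernatant IL-6 read by HTRF (TLR8); IFNα by IFNα2b AlphaLISA (TLR7/TLR9).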

Row | SMILES | IC50
1 | Cc1cc(N2CCc3c(c(C)nn3CC34CCC(N5CC[C@H](O)C5)(CC3)CC4)C2)c2cnn(C)c2n1 [compound 75, (S)-1-(4-((5-(1,6-dimethyl-1H-pyrazolo[3,4-b]pyridin-4-yl)-3-methyl-4,5,6,7-tetrahydro-1H-pyrazolo[4,3-c]pyridin-1-yl)methyl)bicyclo[2.2.2]octan-1-yl)pyrrolidin-3-ol] | 11 nM
2 | Cc1cc(N2CCc3c(c(C)nn3CC34CCC(N(C)C5CCC5)(CC3)CC4)C2)c2cnn(C)c2n1 [compound 79, N-cyclobutyl-4-((5-(1,6-dimethyl-1H-pyrazolo[3,4-b]pyridin-4-yl)-3-methyl-4,5,6,7-tetrahydro-1H-pyrazolo[4,3-c]pyridin-1-yl)methyl)-N-methylbicyclo[2.2.2]octan-1-amine] | 4 nM
3 | Cc1nn(CC23CCC(N4CCCC4)(CC2)CC3)c2c1CN(c1ccnc(-c3ccccc3)c1)CC2 [compound 85, 3-methyl-5-(2-phenylpyridin-4-yl)-1-((4-(pyrrolidin-1-yl)bicyclo[2.2.2]octan-1-yl)methyl)-4,5,6,7-tetrahydro-1H-pyrazolo[4,3-c]pyridine] | 46 nM
4 | Cc1cc(N2CCc3c(c(C)nn3CC34CCC(N)(CC3)CC4)C2)c2ccnc(C)c2n1 [compound 92, 4-((5-(2,8-dimethyl-1,7-naphthyridin-4-yl)-3-methyl-4,5,6,7-tetrahydro-1H-pyrazolo[4,3-c]pyridin-1-yl)methyl)bicyclo[2.2.2]octan-1-amine] | 160 nM

More lines, in order of falling IC50, values ahead:

Row | IC50 | SMILES
5 | 81 nM | Cc1cc(N2CCc3c(c(C)nn3CC34CCC(N5CCCC5)(CC3)CC4)C2)c2ccncc2n1 [compound 86, 2-methyl-4-(3-methyl-1-((4-(pyrrolidin-1-yl)bicyclo[2.2.2]octan-1-yl)methyl)-6,7-dihydro-1H-pyrazolo[4,3-c]pyridin-5(4H)-yl)-1,7-naphthyridine]
6 | 22 nM | Cc1cc(N2CCc3c(c(C)nn3CCC34CCC(N)(CC3)CC4)C2)c2cnn(C)c2n1 [compound 91, 4-(2-(5-(1,6-dimethyl-1H-pyrazolo[3,4-b]pyridin-4-yl)-3-methyl-4,5,6,7-tetrahydro-1H-pyrazolo[4,3-c]pyridin-1-yl)ethyl)bicyclo[2.2.2]octan-1-amine]
7 | 2 nM | Cc1cc(N2CCc3c(c(C)nn3CC34CCC(N5C[C@H](O)[C@@H](O)C5)(CC3)CC4)C2)c2cnn(C)c2n1 [compound 80, (3S,4S)-1-(4-((5-(1,6-dimethyl-1H-pyrazolo[3,4-b]pyridin-4-yl)-3-methyl-4,5,6,7-tetrahydro-1H-pyrazolo[4,3-c]pyridin-1-yl)methyl)bicyclo[2.2.2]octan-1-yl)pyrrolidine-3,4-diol]
